Counter-ions that a name gives are not always drawn.

The experiment deals with T1, Kv1.5 (Homo sapiens, UniProt P22460).
T1 construct: expressed in transfected cells; host or cells: HEK or LTK- cells
T1 sequence (P22460 whole entry): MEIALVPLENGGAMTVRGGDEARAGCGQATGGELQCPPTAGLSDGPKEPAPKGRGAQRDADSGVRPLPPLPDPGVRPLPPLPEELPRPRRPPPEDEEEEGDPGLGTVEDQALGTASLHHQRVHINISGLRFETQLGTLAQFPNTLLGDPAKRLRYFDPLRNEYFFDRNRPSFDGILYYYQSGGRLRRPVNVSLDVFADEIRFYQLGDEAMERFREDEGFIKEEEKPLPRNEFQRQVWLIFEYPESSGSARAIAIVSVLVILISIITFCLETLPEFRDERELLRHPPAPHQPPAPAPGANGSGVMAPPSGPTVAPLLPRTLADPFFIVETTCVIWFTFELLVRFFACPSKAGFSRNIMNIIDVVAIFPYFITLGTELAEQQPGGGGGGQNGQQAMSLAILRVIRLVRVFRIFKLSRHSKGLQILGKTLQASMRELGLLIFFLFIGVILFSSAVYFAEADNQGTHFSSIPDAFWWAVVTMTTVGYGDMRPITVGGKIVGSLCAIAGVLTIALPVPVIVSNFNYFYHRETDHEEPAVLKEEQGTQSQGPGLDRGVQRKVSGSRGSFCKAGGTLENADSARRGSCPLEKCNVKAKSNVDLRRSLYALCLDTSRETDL
Description: Kv1.5 Patch Clamp EP. The experiment is classed as cell-based. The following applies: 1.0 μM, single point; whole cell patch clamp, Kv1.5 stably over expressed in HEK or LTK- cells. The method, then: The external solution is standard Tyrodes solution. […] Inhibition was measured at the end of the 1 second pulses and expressed relative to controls. Initial Kv1.5 inhibition is estimated by single point determinations done at 1 μM.
`COc1ccc(CCN2C(=O)N(N)CC2c2ccc(C(C)(C)C)cc2)cc1` (stereo not shown) [Compound 2, 1-Amino-4-[4-(tert-butyl)phenyl]-3-[2-(4-methoxyphenyl)ethyl]-2-imidazolidinone]: 1 µM produced 46% inhibition.

For `COc1ccc(CCCN2C(=O)N(N)CC2c2ccc(OC)cc2)cc1` (stereo not shown) [Compound 3, 1-Amino-4-(4-methoxyphenyl)-3-[3-(4-methoxyphenyl)propyl]-2-imidazolidinone], the inhibition (usually the share of the control response that was lost under treatment) at 1 µM worked out at 13%. Same read-out and setting: the value for `COc1ccc(CCN2C(=O)N(N)CC2c2ccc(OC(F)F)cc2)cc1` (stereo not shown) [Compound 5, 1-Amino-3-[2-(4-methoxyphenyl)ethyl]-4-(4-difluoromethoxyphenyl)-2-imidazolidinone 4-methylbenzenesulfonic acid salt] was 36%. Regarding `COc1ccc(CCN2C(=O)N(NS(C)(=O)=O)CC2c2ccc(OC(C)C)cc2)cc1` (stereo not shown) [Compound 14, 1-(Methylsulfonylamino)-3-[2-(4-methoxyphenyl)ethyl]-4-[(4-isopropyloxy)-phenyl]-2-imidazolidinone], the “Kv1.5% inhibition @ 1.0 μM” value is listed as 28%. In turn, `COc1ccc(CCN2C(=O)N(NS(C)(=O)=O)CC2c2ccc3c(c2)OCO3)cc1` (stereo not shown) [Compound 15, 1-(Methylsulfonylamino)-3-[2-(4-methoxyphenyl)ethyl]-4-(benzo[1,3]dioxol-5-yl)-2-imidazolidinone] came in with an inhibition at 1 µM of 46%. `COc1ccc(CCN2C(=O)N(NS(C)(=O)=O)CC2c2ccc3c(c2)OC(F)(F)O3)cc1` (stereo not shown) [Compound 16, 1-(Methylsulfonylamino)-3-[2-(4-methoxyphenyl)ethyl]-4-(2,2-difluorobenzo-[1,3]dioxol-5-yl)-2-imidazolidinone] gave an inhibition at 1 µM of 48%. Still for that read-out and setting: in the case of `COc1ccc(CN2C(=O)N(NS(C)(=O)=O)CC2c2ccc(C3CC3)cc2)cc1` (stereo not shown) [Compound 19, 1-(Methylsulfonylamino)-3-[(4-methoxyphenyl)methyl]-4-(4-cyclopropylphenyl)-2-imidazolidinone] it was 27%; in that of `COc1ccc(CCN2C(=O)N(NS(C)(=O)=O)CC2c2ccc(C(F)(F)F)cc2)cc1` (stereo not shown) [Compound 22, 1-(Methylsulfonylamino)-3-[2-(4-methoxyphenyl)ethyl]-4-(4-trifluoromethyl-phenyl)-2-imidazolidinone], 30%. The same measure, in the same setting: in the case of `COc1ccc(CCN2C(=O)N(NS(=O)(=O)CC#N)CC2c2ccc(OC)cc2)cc1` (stereo not shown) [Compound 41, 1-(Cyanomethylsulfonylamino)-3-[2-(4-methoxyphenyl)ethyl]-4-[(4-methoxy)-phenyl]-2-imidazolidinone] it was 42%. The compound `COc1ccc(C2CN(NS(C)(=O)=O)C(=O)N2CCCc2ccccc2)cc1` (stereo not shown) [Compound 46, 1-(Methylsulfonylamino)-3-(3-phenylpropyl)-4-(4-methoxyphenyl)-2-imidazolidinone] showed an inhibition at 1 µM of 40%. Same read-out and setting: the value for `COc1ccc(CCN2C(=O)N(NS(=O)(=O)CC(=O)NC3CC3)CC2c2ccc(OC)cc2)cc1` (stereo not shown) [Compound 56, 1-[[2-(Cyclopropylamino)-2-oxoethyl]sulfonylamino]-3-[2-(4-methoxyphenyl)-ethyl]-4-(4-methoxyphenyl)-2-imidazolidinone] was 39%; that for `COc1ccc(CCN2C(=O)N(NS(=O)(=O)c3cccnc3)CC2c2ccc(OC)cc2)cc1` (stereo not shown) [Compound 62, 1-[(Pyridin-3-yl)sulfonylamino]-3-[2-(4-methoxyphenyl)ethyl]-4-(4-methoxyphenyl)-2-imidazolidinone] was 26%. On the same count and under the same terms, the value for `COc1ccc(CCN2C(=O)N(NC(N)=O)CC2c2ccc(C)c(C)c2)cc1` (stereo not shown) [Compound 70, {2-Oxo-3-[2-(4-methoxyphenyl)ethyl]-4-(3,4-dimethylphenyl)-imidazolidin-1-yl}-urea] was 22%; that for `COc1ccc(CCN2C(=O)N(NCC3CC3)CC2c2ccc(C)c(C)c2)cc1` (stereo not shown) [Compound 86, 1-(Cyclopropylmethylamino)-3-[2-(4-methoxyphenyl)ethyl]-4-(3,4-dimethylphenyl)-2-imidazolidinone] was 20%. Consider `COc1ccc(CCN2C(=O)N(NCc3ccccn3)CC2c2ccc(C)c(C)c2)cc1` (stereo not shown) [Compound 93, 1-[(Pyridin-2-ylmethyl)amino]-3-[2-(4-methoxyphenyl)ethyl]-4-(3,4-dimethylphenyl)-2-imidazolidinone], for which at 1 µM the inhibition was 46%. `COc1ccc(CCN2C(=O)N(NCc3ccncc3)CC2c2ccc(C(C)(C)C)cc2)cc1` (stereo not shown) [Compound 95, 1-[(Pyridin-4-ylmethyl)amino]-3-[2-(4-methoxyphenyl)ethyl]-4-(4-(tert-butyl)phenyl)-2-imidazolidinone]: 1 µM produced 43% inhibition. In the case of `COc1ccc(CCN2C(=O)N(NS(=O)(=O)CC(=O)OCC3c4ccccc4-c4ccccc43)CC2c2ccc(C3CC3)cc2)cc1` (stereo not shown) [Compound 102, 1-[[2-(9H-fluoren-9-ylmethoxy)-2-oxoethyl]sulfonylamino]-3-[2-(4-methoxyphenyl)ethyl]-4-(4-cyclopropylphenyl)-2-imidazolidinone], the inhibition at 1 µM amounted to 6%. In the case of `COc1ccc(CCN2C(=O)N(N)CC2c2ccc(OC(F)(F)F)cc2)cc1` (stereo not shown) [Compound 110, 1-amino-3-[2-(4-methoxyphenyl)ethyl]-4-[4-(trifluoromethoxy)phenyl]imidazolidin-2-one], at 1 µM the inhibition was 7%. Same read-out and setting: the value for `COc1ccc(CCN2C(=O)N(N3CCNCC3)CC2c2ccc(C(C)(C)C)cc2)cc1` (stereo not shown) [Compound 112, 4-(4-tert-butylphenyl)-3-[2-(4-methoxyphenyl)ethyl]-1-piperazin-1-ylimidazolidin-2-one] was 8%; that for `CCOc1ccc(CCN2C(=O)N(NS(C)(=O)=O)CC2c2ccc(OC)cc2)cc1` (stereo not shown) [Compound 113, N-{3-[2-(4-ethoxyphenyl)ethyl]-4-(4-methoxyphenyl)-2-oxoimidazolidin-1-yl}methanesulfonamide] was 5%. Still for that read-out and setting: in the case of `COc1ccc(CCN2C(=O)N(NS(=O)(=O)CC(N)=O)CC2c2ccc(OC)cc2)cc1` (stereo not shown) [Compound 115, 2-({4-(4-methoxyphenyl)-3-[2-(4-methoxyphenyl)ethyl]-2-oxoimidazolidin-1-yl}sulfamoyl)acetamide] it was 5%. The compound `CNC(=O)N1CCN(N2CC(c3ccc(C(C)(C)C)cc3)N(CCc3ccc(OC)cc3)C2=O)CC1` (stereo not shown) [Compound 117, 4-{4-(4-tert-butylphenyl)-3-[2-(4-methoxyphenyl)ethyl]-2-oxoimidazolidin-1-yl}-N-methylpiperazine-1-carboxamide] showed an inhibition at 1 µM of 19%. On the same count and under the same terms, in the case of `CN(C)CCOc1ccc(CCN2C(=O)N(NS(C)(=O)=O)CC2c2ccc(C(C)(C)C)cc2)cc1` (stereo not shown) [Compound 118, N-[4-(4-tert-butylphenyl)-3-(2-{4-[2-(dimethylamino)ethoxy]phenyl}ethyl)-2-oxoimidazolidin-1-yl]methanesulfonamide] it was 9%; in that of `COc1ccc(CCN2C(=O)N(NS(C)(=O)=O)CC2Cc2ccc(F)cc2)cc1` (stereo not shown) [Compound 120, N-{4-(4-fluorobenzyl)-3-[2-(4-methoxyphenyl)ethyl]-2-oxoimidazolidin-1-yl}methanesulfonamide], 5%; in that of `COc1ccc(CCN2C(=O)N(NCCn3ccnc3)CC2c2ccc(C(C)(C)C)cc2)cc1` (stereo not shown) [Compound 121, 4-(4-tert-butylphenyl)-1-{[2-(1H-imidazol-1-yl)ethyl]amino}-3-[2-(4-methoxyphenyl)ethyl]imidazolidin-2-one], 7%.

The values above are taken from patent US7504517B2, “Kv1.5 potassium channel inhibitors” (Wyeth, priority 2006, dated 2009).
